# Assay results from US20240398773A1, “COMPOSITIONS COMPRISING OTESECONAZOLE” (Mycovia Pharmaceuticals, Inc., priority 2021, published 2024).
# Tested on: Candida species
# Experiment: Phase 2a dose-ranging study in moderate-to-severe acute VVC, effective therapeutic cure
# Format: in vivo, human
# Details: comparator arm, single dose of fluconazole 150 mg; Per Protocol population
# Method: Oteseconazole has previously been evaluated in a Phase 2a multi-center, randomized, double-blind, active-controlled, parallel-group, dose-ranging study in patients with moderate-to-severe acute VVC. A total of 55 subjects with moderate-to-severe acute VVC (severity score ≥6 and a positive fungal KOH test) participated in the study across 4 dose groups: 1) oteseconazole 300 mg qd for 3 days: 2) 600 mg qd for 3 days: 3) 600 mg bid for 3 days; or 4) a single dose of fluconazole 150 mg followed by matching placebo. […] No safety signals of clinical concern were observed from the safety assessments.
# The efficacy of oteseconazole in the treatment of moderate-to-severe acute VVC was evaluated at the TOC visit in the Per Protocol population at the Day 28 test of cure (TOC) visit was, 87%, 86%, 86%, and 75% of subjects receiving the low, mid-, or high-dose oteseconazole or comparator arm of fluconazole, respectively, achieved an effective therapeutic cure (defined as having a total clinical signs and symptoms severity score of ≤1 and a negative culture for Candida species) in the Per Protocol population
smiles,measurement,value
"OC(Cn1cncn1)(Cn1cncn1)c1ccc(F)cc1F [fluconazole, reference compound]",subjects achieving effective therapeutic cure at Day 28 TOC visit,75%
